Data: patent US11891365B2, “3-alkyl-4-amido-bicyclic [4,5,0] hydroxamic acids as HDAC inhibitors” (Valo Health, Inc., priority 2015, dated 2024)

Target: T1, Full length human recombinant HDAC6 protein (Homo sapiens, UniProt Q9UBN7)
T1 sequence (Q9UBN7 1-1215): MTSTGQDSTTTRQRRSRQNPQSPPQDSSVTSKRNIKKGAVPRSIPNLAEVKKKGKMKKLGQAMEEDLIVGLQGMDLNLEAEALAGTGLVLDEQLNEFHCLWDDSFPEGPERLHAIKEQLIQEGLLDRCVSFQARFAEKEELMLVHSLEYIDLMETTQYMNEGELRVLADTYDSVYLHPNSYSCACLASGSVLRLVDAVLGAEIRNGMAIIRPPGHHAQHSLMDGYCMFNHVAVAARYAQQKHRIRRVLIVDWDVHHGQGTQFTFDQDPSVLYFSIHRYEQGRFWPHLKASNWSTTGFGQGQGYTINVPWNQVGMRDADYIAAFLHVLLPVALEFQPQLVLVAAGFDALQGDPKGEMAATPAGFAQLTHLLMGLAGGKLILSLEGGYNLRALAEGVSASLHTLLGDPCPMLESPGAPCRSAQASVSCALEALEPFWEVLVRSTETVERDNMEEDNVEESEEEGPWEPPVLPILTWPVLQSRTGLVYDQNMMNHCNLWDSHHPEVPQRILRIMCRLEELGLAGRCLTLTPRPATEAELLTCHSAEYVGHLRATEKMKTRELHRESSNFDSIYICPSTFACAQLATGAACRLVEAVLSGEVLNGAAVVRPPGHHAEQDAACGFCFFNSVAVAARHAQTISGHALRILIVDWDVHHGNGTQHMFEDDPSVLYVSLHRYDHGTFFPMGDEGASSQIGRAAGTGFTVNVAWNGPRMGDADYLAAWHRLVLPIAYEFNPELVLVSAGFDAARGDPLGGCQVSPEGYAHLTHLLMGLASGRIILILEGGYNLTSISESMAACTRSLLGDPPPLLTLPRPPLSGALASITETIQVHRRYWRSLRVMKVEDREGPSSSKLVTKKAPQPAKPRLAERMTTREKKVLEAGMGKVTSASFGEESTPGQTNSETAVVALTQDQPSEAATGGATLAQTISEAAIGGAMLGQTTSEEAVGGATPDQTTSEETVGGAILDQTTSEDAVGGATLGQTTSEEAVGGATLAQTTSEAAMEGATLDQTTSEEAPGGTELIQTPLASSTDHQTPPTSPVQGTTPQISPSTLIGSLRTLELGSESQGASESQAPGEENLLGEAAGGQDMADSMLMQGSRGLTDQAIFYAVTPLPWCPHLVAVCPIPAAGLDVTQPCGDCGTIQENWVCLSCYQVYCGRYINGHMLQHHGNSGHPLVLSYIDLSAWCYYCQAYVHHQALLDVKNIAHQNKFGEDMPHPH
Assay: In vitro histone deacetylase assay: enzymatic HDAC6 electrophoretic mobility shift assay
Format: biochemical
Conditions: 1 nM enzyme, 2 μM peptide substrate RHKK(Ac)-NH2, 25° C., 12 concentrations; read-out: Inhibitory Concentration (IC50) Values against HDAC6, Activity Range

Row | Compound | IC50
1 | CS(=O)(=O)N1CCC(CC(=O)N2CCOc3cc(C(=O)NO)ccc3C2)CC1 [N-hydroxy-4-(2-(1-(methylsulfonyl)piperidin-4-yl)acetyl)-2,3,4,5-tetrahydrobenzo[f][1,4]oxazepine-8-carboxamide] | > 500 nM
2 | COc1ccccc1C(C)(C)C(=O)N1CCOc2cc(C(=O)NO)ccc2C1 [N-hydroxy-4-(2-(2-methoxyphenyl)-2-methylpropanoyl)-2,3,4,5-tetrahydrobenzo[f][1,4]oxazepine-8-carboxamide] | > 500 nM
3 | Cc1nc(CC(=O)N2CCOc3cc(C(=O)NO)ccc3C2)cs1 [N-hydroxy-4-(2-(2-methylthiazol-4-yl)acetyl)-2,3,4,5-tetrahydrobenzo[f][1,4]oxazepine-8-carboxamide] | 100 to 500 nM
4 | O=C(NO)c1ccc2c(c1)OCCN(C(=O)Cn1cccc(C(F)(F)F)c1=O)C2 [N-hydroxy-4-(2-(2-oxo-3-(trifluoromethyl)pyridin-1(2H)-yl)acetyl)-2,3,4,5-tetrahydrobenzo[f][1,4]oxazepine-8-carboxamide] | 100 to 500 nM
5 | O=C(NO)c1ccc2c(c1)OCCN(C(=O)C(c1ccccc1)N1CCCCC1=O)C2 (stereo not drawn) [N-hydroxy-4-(2-(2-oxopiperidin-1-yl)-2-phenylacetyl)-2,3,4,5-tetrahydrobenzo[f][1,4]oxazepine-8-carboxamide] | 100 to 500 nM
6 | O=C(NO)c1ccc2c(c1)OCCN(C(=O)Cc1ccccc1Oc1ccccc1)C2 [N-hydroxy-4-(2-(2-phenoxyphenyl)acetyl)-2,3,4,5-tetrahydrobenzo[f][1,4]oxazepine-8-carboxamide] | > 500 nM
7 | COc1cccc(C(C)(C)C(=O)N2CCOc3cc(C(=O)NO)ccc3C2)c1 [N-hydroxy-4-(2-(3-methoxyphenyl)-2-methylpropanoyl)-2,3,4,5-tetrahydrobenzo[f][1,4]oxazepine-8-carboxamide] | 100 to 500 nM
8 | O=C(NO)c1ccc2c(c1)OCCN(C(=O)Cc1ccc(C(F)(F)F)cc1)C2 [N-hydroxy-4-(2-(4-(trifluoromethyl)phenyl)acetyl)-2,3,4,5-tetrahydrobenzo[f][1,4]oxazepine-8-carboxamide] | > 500 nM
9 | O=C(NO)c1ccc2c(c1)OCCN(C(=O)C(c1ccccc1)N1CCC(O)CC1)C2 (stereo not drawn) [N-hydroxy-4-(2-(4-hydroxypiperidin-1-yl)-2-phenylacetyl)-2,3,4,5-tetrahydrobenzo[f][1,4]oxazepine-8-carboxamide] | 100 to 500 nM
10 | CC(C)COc1ccc(C(C)(C)C(=O)N2CCOc3cc(C(=O)NO)ccc3C2)cc1 [N-hydroxy-4-(2-(4-isobutoxyphenyl)-2-methylpropanoyl)-2,3,4,5-tetrahydrobenzo[f][1,4]oxazepine-8-carboxamide] | 100 to 500 nM
11 | COc1ccc(OCC(=O)N2CCOc3cc(C(=O)NO)ccc3C2)cc1 [N-hydroxy-4-(2-(4-methoxyphenoxy)acetyl)-2,3,4,5-tetrahydrobenzo[f][1,4]oxazepine-8-carboxamide] | ≤ 100 nM
12 | COc1ccc(CC(=O)N2CCOc3ccc(C(=O)NO)cc3C2)cc1 [N-hydroxy-4-(2-(4-methoxyphenyl)acetyl)-2,3,4,5-tetrahydrobenzo[f][1,4]oxazepine-7-carboxamide] | > 500 nM
13 | COc1ccc(CC(=O)N2CCOc3cc(C(=O)NO)ccc3C2)cc1 [N-hydroxy-4-(2-(4-methoxyphenyl)acetyl)-2,3,4,5-tetrahydrobenzo[f][1,4]oxazepine-8-carboxamide] | > 500 nM
14 | COc1ccc(CC(=O)N2CC(=O)Nc3ccc(C(=O)NO)cc3C2)cc1 [N-hydroxy-4-(2-(4-methoxyphenyl)acetyl)-2-oxo-2,3,4,5-tetrahydro-1H-benzo[e][1,4]diazepine-7-carboxamide] | > 500 nM
15 | COc1ccc2[nH]cc(CC(=O)N3CCOc4cc(C(=O)NO)ccc4C3)c2c1 [N-hydroxy-4-(2-(5-methoxy-1H-indol-3-yl)acetyl)-2,3,4,5-tetrahydrobenzo[f][1,4]oxazepine-8-carboxamide] | > 500 nM
16 | Cc1nnnn1C(C(=O)N1CCOc2cc(C(=O)NO)ccc2C1)c1ccccc1 (stereo not drawn) [N-hydroxy-4-(2-(5-methyl-1H-tetrazol-1-yl)-2-phenylacetyl)-2,3,4,5-tetrahydrobenzo[f][1,4]oxazepine-8-carboxamide] | 100 to 500 nM
17 | CC(C(=O)N1CCOc2cc(C(=O)NO)ccc2C1)c1cccnc1 (stereo not drawn) [N-hydroxy-4-(2-(pyridin-3-yl)propanoyl)-2,3,4,5-tetrahydrobenzo[f][1,4]oxazepine-8-carboxamide] | ≤ 100 nM
18 | O=C(NO)c1ccc2c(c1)OCCN(C(=O)C1CCCC13CCNC3)C2 (stereo not drawn) [N-hydroxy-4-(2-azaspiro[4.4]nonane-6-carbonyl)-2,3,4,5-tetrahydrobenzo[f][1,4]oxazepine-8-carboxamide] | 100 to 500 nM
19 | O=C(NO)c1ccc2c(c1)OCCN(C(=O)C1CCC3(CCNC3)CC1)C2 (stereo not drawn) [N-hydroxy-4-(2-azaspiro[4.5]decane-8-carbonyl)-2,3,4,5-tetrahydrobenzo[f][1,4]oxazepine-8-carboxamide] | ≤ 100 nM
20 | CC(C)(O)C(=O)N1CCOc2cc(C(=O)NO)ccc2C1 [N-hydroxy-4-(2-hydroxy-2-methylpropanoyl)-2,3,4,5-tetrahydrobenzo[f][1,4]oxazepine-8-carboxamide] | 100 to 500 nM
21 | CC(C)COCC(=O)N1CCOc2cc(C(=O)NO)ccc2C1 [N-hydroxy-4-(2-isobutoxyacetyl)-2,3,4,5-tetrahydrobenzo[f][1,4]oxazepine-8-carboxamide] | > 500 nM

Results, then the molecule that gave them:

Row | IC50 | Compound
22 | > 500 nM | CC(C)C(O)(C(=O)N1CCOc2cc(C(=O)NO)ccc2C1)c1ccccc1 (stereo not drawn) [N-hydroxy-4-(2-hydroxy-3-methyl-2-phenylbutanoyl)-2,3,4,5-tetrahydrobenzo[f][1,4]oxazepine-8-carboxamide]
23 | ≤ 100 nM | Cc1cc(C)c(CC(=O)N2CCOc3cc(C(=O)NO)ccc3C2)c(C)c1 [N-hydroxy-4-(2-mesitylacetyl)-2,3,4,5-tetrahydrobenzo[f][1,4]oxazepine-8-carboxamide]
24 | 100 to 500 nM | COC(C(=O)N1CCOc2cc(C(=O)NO)ccc2C1)c1ccccc1 (stereo not drawn) [N-hydroxy-4-(2-methoxy-2-phenylacetyl)-2,3,4,5-tetrahydrobenzo[f][1,4]oxazepine-8-carboxamide]
25 | 100 to 500 nM | COC(C)(C(=O)N1CCOc2cc(C(=O)NO)ccc2C1)c1ccccc1 (stereo not drawn) [N-hydroxy-4-(2-methoxy-2-phenylpropanoyl)-2,3,4,5-tetrahydrobenzo[f][1,4]oxazepine-8-carboxamide]
26 | ≤ 100 nM | Cc1ccn(C(C)(C)C(=O)N2CCOc3cc(C(=O)NO)ccc3C2)n1 [N-hydroxy-4-(2-methyl-2-(3-methyl-1H-pyrazol-1-yl)propanoyl)-2,3,4,5-tetrahydrobenzo[f][1,4]oxazepine-8-carboxamide]
27 | 100 to 500 nM | CC(C)(C(=O)N1CCOc2cc(C(=O)NO)ccc2C1)c1ccc2ccccc2c1 [N-hydroxy-4-(2-methyl-2-(naphthalen-2-yl)propanoyl)-2,3,4,5-tetrahydrobenzo[f][1,4]oxazepine-8-carboxamide]
28 | 100 to 500 nM | CC(C)(C(=O)N1CCOc2cc(C(=O)NO)ccc2C1)c1ccccn1 [N-hydroxy-4-(2-methyl-2-(pyridin-2-yl)propanoyl)-2,3,4,5-tetrahydrobenzo[f][1,4]oxazepine-8-carboxamide]
29 | 100 to 500 nM | CC(C)(C(=O)N1CCOc2cc(C(=O)NO)ccc2C1)c1cccnc1 [N-hydroxy-4-(2-methyl-2-(pyridin-3-yl)propanoyl)-2,3,4,5-tetrahydrobenzo[f][1,4]oxazepine-8-carboxamide]
30 | ≤ 100 nM | CC(C)(C(=O)N1CCOc2cc(C(=O)NO)ccc2C1)c1cccs1 [N-hydroxy-4-(2-methyl-2-(thiophen-2-yl)propanoyl)-2,3,4,5-tetrahydrobenzo[f][1,4]oxazepine-8-carboxamide]
31 | 100 to 500 nM | CC(C)(C(=O)N1CCOc2cc(C(=O)NO)ccc2C1)c1ccccc1 [N-hydroxy-4-(2-methyl-2-phenylpropanoyl)-2,3,4,5-tetrahydrobenzo[f][1,4]oxazepine-8-carboxamide]
32 | ≤ 100 nM | CC(Cc1ccccc1)C(=O)N1CCOc2cc(C(=O)NO)ccc2C1 (stereo not drawn) [N-hydroxy-4-(2-methyl-3-phenylpropanoyl)-2,3,4,5-tetrahydrobenzo[f][1,4]oxazepine-8-carboxamide]
33 | > 500 nM | O=C(NO)c1ccc2c(c1)OCCN(C(=O)CN1CCOCC1)C2 [N-hydroxy-4-(2-morpholinoacetyl)-2,3,4,5-tetrahydrobenzo[f][1,4]oxazepine-8-carboxamide]
